In one assay the test system is HIV-1. Put plainly: microbe, parasite or virus in culture. The protocol: (A and C) Concentrations of T20 that block viral infection. […] One hour before incubation with the virus, cells were pretreated with T20 or left untreated. At 12 hours, cells were washed extensively and cultured under the same conditions. On day 9, the viral concentration was determined using a p24gag FLAQ assay. The amount of p24gag accumulated in the absence of drugs by each viral clone (A) or by SKY (C) was defined as 100%. (B and D) Effect of T20 on indirect killing. CFSE-labeled cells were co-cultured with cells infected with the indicated viral clones in the presence of 5 μM AZT and the indicated concentrations of T20. After 6 days, indirect killing in the mixed cultures was assessed. The number of viable CFSE-positive CD4 T-cells co-cultured with uninfected cells in the presence of AZT was defined as 100% (not shown). To allow successful initial infection the GIA-SKY mutants were pseudotyped with the VSV-G envelope. NL4-3, WT lab-adapted virus; WEAU 16-8, primary virus; SIM, T20-resistant virus; GIA-SKY, T20-dependent virus; GIA and SKY, single-domain mutant viruses. Representative data from three independent experiments with different donors are shown. See also FIG. 5, below.
HLACs were infected with viruses derived from the indicated HIV proviral clones in the presence of the indicated concentrations of AZT or in the absence of drugs. Six days after infection the amount of p24^gag in the medium was determined by FLAQ assay. The amount of p24^gag in the medium after infection wash (day 0) was defined as 0%. […] Viral incorporation of endogenous A3G was measured by immunoblot analysis of purified NL4-3 and Δvif NL4-3 virions harvested from 1 ml of supernatant from infected HLACs. Doses reflect 1:10 dilutions. […] Resting or activated CFSE-labeled cells were co-cultured with cells infected with WT or Δvif NL4-3 in the presence or absence of the following drugs, AZT (5 μM), AMD3100 (250 nM), the NNRTIs Efavirenz (100 nM), and Nevirapine (1 μM), or the integration inhibitors Raltegravir (30 μM) and 118-D-24 (60 μM). Data are representative of four independent experiments performed with cells from four different donors. (E) A method to assess indirect killing in HLAC with non-infectious HIV-1 clones. Fresh human tonsil is processed into HLAC and cells are cultured in suspension. At the same time 293T-cells are transfected with 1 μg HIV-1 DNA in a 24-well plate. After 12 hours, 293T-cells are washed and overlayed with 3×10^6 HLAC cells in RPMI in the presence of the indicated drugs. Virus-producing 293T-cells directly interact with target overlaying HLAC cells. After 24 hours, the HLAC suspensions are collected from wells and analyzed by flow cytometry. […] HLAC were cultured with the indicated drugs 3 hours before co-culture with 293T-cells. Percentages are normalized to the number of viable CD4 T-cells in HLAC overlaying non-transfected 293T-cells in the presence of AZT, as depicted by (*). Error bars represent standard error of the mean of three experiments performed using cells from three different HLAC donors.

Assay [1] concerns lactate dehydrogenase (LDH) release. Briefly: LDH release from HIV-1-infected HLACs (pyroptosis). Conditions: caspase inhibitors 50 μM or 100 μM, 3 days, FIG. 16C. Format: cell-based, human. The protocol: Caspase-1 activation can lead to a highly inflammatory form of cell death called pyroptosis. To gain insight into how CD4 T cells die, it was determined whether HIV infection in CD4 T cells induce pyroptosis cell death, as measured by lactate dehydrogenase (LDH) release. HLACs were left uninfected or infected with NL4-3 in the presence of no drugs, efavirenz, AMD3100, or caspase inhibitors (50 μM or 100 μM), as indicated in FIG. 16C. After 3 days, the supernatants were assayed for the cytosolic enzyme lactate dehydrogenase (LDH) and the LDH released by dying cells was quantified.
For orientation: LDH in the medium is a marker of cell lysis.

The test system of a further assay is caspase-1 and caspase-3. Put plainly: Intracellular caspase activity after spinoculation with NL4-3. The assay is classed as cell-based, human. The conditions noted are these: AZT 5 μM, efavirenz 100 nM, T20 10 μg/ml, 3 days. The method, then: HLACs were subjected to intracellular analysis of caspases activity and cytokine expression 3 days after spinoculation with NL4-3. Intracellular caspase-1, -3, -6, -8, and -9 activities were analyzed with a CaspaLux1 E1D2, Phiphilux G1D2, CaspaLux6 J1D2, CaspaLux 8 L1D2, and CaspaLux 9 M1D2 kits (OncoImmunin), respectively, at 37° C. for 15 min, followed by staining with PE anti-CD4, and APC anti-CD8, at 4° C. for 15 min. For annexin V analysis, cells were stained with APC-conjugated annexin V together with PE anti-CD4, FITC anti-CD8, and with 0.5 μg/ml ethidium monoazide (E-1374, Molecular Probes) for 15 min at 4° C. For intracellular cytokine capture, cells were incubated with 2 μM protein transport inhibitor GolgiStop (BD Biosciences) containing monensin, and 5 μg/ml Brefeldin A (EMD biosciences) at 37° C. for 6 hours before analysis. Cells were then stained with anti-CD4 and anti-CD8 antibodies at 4° C. for 15 min, and fixed in 1% paraformaldehyde at 4° C. for 1 hour. Fixed cells were washed extensively with PBS and were stained in 0.2% saponin buffer (PBS+2% FBS+0.2% saponin) containing PE anti-human TNFα (R&D Systems), FITC anti-human IFNβ (PBL Biomedical laboratories), PE anti-human IL-1β (BD Biosciences), or APC anti-phosphorylated p53 at serine 37 (pS37) at 4° C. for 1 hour.

Assay [2] concerns CD4 T cells in HIV-1 (NL4-3)-infected HLACs. Briefly: CD4 T-cell death in HIV-1-infected HLACs, viable CD4 T cells by flow cytometry. Format: cell-based, human. Conditions: FIG. 15, 4 different donors. A general note: A flow cytometer gives signals particle by particle.

For `Cc1cn([C@H]2C[C@H](N=[N+]=[N-])[C@@H](CO)O2)c(=O)[nH]c1=O` [AZT], in the assay on HIV-1 (Human immunodeficiency virus 1, in Homo sapiens, read-out: concentration achieving half maximal inhibitory effect), the IC50 came out at 500 nM. For the same compound, the “concentration that blocks viral replication” value in the assay with HIV-1 (NL4-3-infected and AZT-sensitive clones) worked out at 0.5 µM.
Consider `O=C1Nc2ccc(Cl)cc2[C@@](C#CC2CC2)(C(F)(F)F)O1` [efavirenz], for which, in assay [1], the “LDH release from HIV-1 infected cells” value is listed as “LDH was not released”. In the assay with caspase-1 and caspase-3, the “activation of caspase-1 and caspase-3 in abortively infected CD4 T-cells” value is “prevented activation of these caspases”. The “death of infected CD4 T-cells” value in assay [2] is reported as “inhibit the death of infected CD4 T-cells”.
As to `c1cc(CN2CCCNCCNCCCNCC2)ccc1CN1CCCNCCNCCCNCC1` [AMD3100], the “LDH release from HIV-1 infected cells” value in assay [1] is listed as “LDH was not released”. Also, the “death of infected CD4 T-cells” value in assay [2] was “inhibit the death of infected CD4 T-cells”.
Consider enfuvirtide, for which the “activation of caspase-1 and caspase-3 in abortively infected CD4 T-cells” value with caspase-1 and caspase-3 was “prevented activation of these caspases”. Moreover, in the assay on HIV-1, the “concentration at which inhibition of infection begins” value is > 2 µg/mL, the “concentration giving complete inhibition of infection” value was 0.1 µg/mL, the “concentration required for complete inhibition of infection” value was found to be 10 µg/mL and the inhibition of infection entry is listed as “did not inhibit infection”. For the same compound, the “replication of T20-dependent mutant GIA-SKY” value in the assay with HIV-1 is recorded as “readily replicated”.

(Values after patent publication US9352010B2, “Treatment of HIV-1 infection and AIDS” (The J. David Gladstone Institutes, priority 2011, dated 2016).)
